Assay results published in patent US20250188118A1, “LIQUID PHASE PEPTIDE SYNTHESIS METHODS” (AMGEN INC., priority 2023, published 2025).
≈ marks a conversion by molar mass, not a printed value.

Assays:
[1] = in water at 23° C.; cited from earlier work
[2] = C18 tag solubility in screening solvents (slurry agitated overnight, supernatant assayed by calibrated HPLC); assay type: physicochemical; conditions: organic solvent or mixture, thermodynamic from solid, 20 °C
Method: Provided in this section is an analysis of the solubility of the C18 tag in various organic solvents. All starting materials are either commercially available from Sigma-Aldrich, Oakwood Chemicals, ChemPep Inc., CombiBlocks, or similar vendors, unless otherwise noted, or known in the art and may be synthesized by employing known procedures using ordinary skill.
(3,4,5-trioctadecoxyphenyl)methanol (200 mg) was measured out into a series of 1-dram vials. 1 mL of a screening solvent was added to its corresponding 1-dram vial. The slurry vials were placed on a shaker plate set to 20° C. and agitated overnight. Following agitation, the slurries were transferred to centrifuge tubes and the supernatant was isolated. 100 μL of the isolated supernatant was diluted in 10 mL THF to provides solutions for HPLC analysis using the Agilent 1290 Infinity II system with a Cortecs UPLC C8 1.6 μm 2, 1×150 mm column with a dilution factor of 100. A typical run through the HPLC instrument used a column temperature of 30° C.; an injection volume of 1 μL; a method length of 15 min; a flow rate of 0.3 mL/min; UV Detection: 220 nm; Mobile Phase A: 0.1% TFA in water; Mobile Phase B: 0.1% TFA in ACN; HPLC Gradient: 0 min—95:5 (A:B), 10 min—5:95 (A:B), 13 min—95:5 (A:B). The sample solutions were assayed on a calibrated LC system, and the corresponding C18 tag concentrations are reported below.

SMILES	miscibility in water [1] [g/100 g]	solubility ([2]; solvent 2-Me-THF) [mg/mL]	solubility ([2]; solvent CPME) [mg/mL]	solubility ([2]; solvent Heptanes) [mg/mL]	solubility ([2]; solvent MTBE) [mg/mL]	solubility ([2]; solvent PhMe) [mg/mL]	solubility ([2]; solvent THF) [mg/mL]	solubility ([2]; solvent iPrOAc) [mg/mL]
CC1CCCO1 (centres unmarked) [Example 2-MeTHF, 2-methyltetrahydrofuran]	14	–	–	–	–	–	–	–
CCCCCCCCCCCCCCCCCCOc1cc(CO)cc(OCCCCCCCCCCCCCCCCCC)c1OCCCCCCCCCCCCCCCCCC [C18 Tag, (3,4,5-trioctadecoxyphenyl)methanol]	–	172 (≈ 189 mM)	6.8 (≈ 7.44 mM)	1.63 (≈ 1.78 mM)	43.8 (≈ 48 mM)	57.8 (≈ 63.3 mM)	≥ 200	1.81 (≈ 1.98 mM)
